# From patent publication US7858578B2, “Methods of inducing neuronal growth by a Fucose-α(1-2) galactose (fuc-α(1-2) gal) moiety and a lectin” (California Institute of Technology, priority 2004, dated 2010)
# Assays:
# hippocampal neurons [1] = test: Neurite outgrowth of hippocampal neurons treated with carbohydrate-PAA conjugates; format: cell-based, rat; conditions: FIG. 4B, concentration and valency series
# Description: Hippocampal neurons were cultured using a procedure modified from Goslin and Banker, in Culturing Nerve Cells, Banker, G., Goslin, K., Eds., pp. 251-281, MIT Press: Cambridge, Mass. 1991. Briefly, the hippocampi of embryonic day 18 (E18) rats were dissected and transferred to 4.5 mL of ice-cold Calcium and Magnesium Free-Hank's Balanced Salt Solution (CMF-HBSS). Trypsin (2.5%, no EDTA) was added to 5 mL, and the tissue was incubated for 15 min at 37° C. The trypsin solution was removed and the tissue sample washed three times with 5 mL of CMF-HBSS. Cells were then dissociated from the tissue in 1 mL of CMF-HBSS by passing through a P1000 pipet tip twenty times. The cells were counted, diluted into Minimal Eagle's Medium (MEM) plus 10% fetal bovine serum, and seeded on poly-DL-ornithine-coated glass coverslips (Carolina Biological) at a density of 75 cells/mm2 (100 μL/coverslip) for 30 min. […]
# The association of Fucα(1-2)Gal with potential lectins was studied to determine if it would stimulate neuronal growth. […] The cultures were incubated in 5% CO2 at 37° C. and analyzed. […]
# For each experiment, 50 randomly selected cells were analyzed per coverslip using similar quantitative analysis techniques reported by Schmid et al., J. Neurosci. […] Briefly, only neurites longer than ˜10 μm and not in contact with other cells were measured using NIH Image 1.62 software. […]
# hippocampal neurons [2] = test: Binding of biotinylated probe to cultured hippocampal neurons (streptavidin-AlexaFluor 488 imaging); format: cell-based, rat; conditions: 3 mM, 10 μM PAO; for labeling of neurons after de-lipidation: neurons de-lipidated with MeOH/CHCl3; for binding to hippocampal neurons: 1 h, E18 neurons 23 days in vitro
# Description: Hippocampal neurons were cultured using a procedure modified from Goslin and Banker, in Culturing Nerve Cells, Banker, G., Goslin, K., Eds., pp. 251-281, MIT Press: Cambridge, Mass. 1991. Briefly, the hippocampi of embryonic day 18 (E18) rats were dissected and transferred to 4.5 mL of ice-cold Calcium and Magnesium Free-Hank's Balanced Salt Solution (CMF-HBSS). Trypsin (2.5%, no EDTA) was added to 5 mL, and the tissue was incubated for 15 min at 37° C. The trypsin solution was removed and the tissue sample washed three times with 5 mL of CMF-HBSS. Cells were then dissociated from the tissue in 1 mL of CMF-HBSS by passing through a P1000 pipet tip twenty times. The cells were counted, diluted into Minimal Eagle's Medium (MEM) plus 10% fetal bovine serum, and seeded on poly-DL-ornithine-coated glass coverslips (Carolina Biological) at a density of 75 cells/mm2 (100 μL/coverslip) for 30 min. After this time, 500 μL of supplemented Neurobasal medium (47.5 mL Neurobasal medium without Lglutamine; 0.5 mL L-glutamine (200 mM); 0.5 mL penicillin/streptomycin (10,000 U/mL); 0.5 mL antibiotic-antimycotic (100× stock), 1.0 mL B-27 serum-free supplement (50× stock); 50 μL of 0.5 M kynurenic acid in 1 N NaOH) was added to each coverslip. The use of kynurenic acid to block glutamate receptor ion channels and enhance neuronal health and survival is standard protocol for neuronal cultures. Id. The cultures were maintained in 5% CO2 at 37° C. in supplemental Neurobasal medium.
# After 23 days in culture, the medium was replaced, and neurons were treated with the endocytosis inhibitor phenylarsine oxide (PAO; 4 μL in DMSO, final concentration 10 μM) (Nouel, D., et al., J. Neurosci. 17:1795-1803 (1997)) and either compound III (24 μL in PBS, final concentration 3 mM), or biotin (24 μL in PBS, final concentration 3 mM), in supplemented Neurobasal medium (400 μL final volume) for 1 h at 37° C., 5% CO2. After 1 h, neurons were rinsed 2 times with PBS, fixed in 4% paraformaldehyde for 20 min at rt, washed 2 times with PBS, permeabilized in 0.3% Triton X-100 for 5 min at rt, and washed 2 times with PBS. Non-specific binding was blocked with 3% BSA for 1 h at rt and then rinsed one time with PBS. Compound III was detected with streptavidin conjugated to AlexaFluor 488 (1:200, Molecular Probes). Dye-conjugated streptavidin was added in 3% BSA for 1 h at 37° C. and the excess reagent washed off 5 times with PBS. Coverslips were then mounted onto slides with Vectashield, sealed, and imaged using confocal laser microscopy. Results can be seen in FIG. 2.
# De-lipidation was performed on some samples following the protocol of Yavin, E. et al., J. Neurosci. Res. 9:229-237 (1983). Briefly, after 23 days in culture, cells were rinsed once with PBS then exposed to MeOH/CHCl3 (½ by vol.) for 15 min at −80° C. This procedure fixes the cells to the coverslip and extracts cellular lipids. After removing the MeOH/CHCl3 mixture, coverslips were dried at rt then incubated with 3% BSA for 1 hr at rt. After one rinse with PBS, neurons were treated with PAO and the procedure described above was followed.
smiles,measurement,setting,value
C[C@@H]1O[C@@H](O[C@H]2[C@H](OCCOCCNC(=O)CCCC[C@@H]3SC[C@@H]4NC(=O)N[C@@H]43)O[C@H](CO)[C@H](O)[C@@H]2O)[C@@H](O)[C@H](O)[C@@H]1O [Compound III],neurite outgrowth activity,hippocampal neurons [1],only modest activity
same,labeling of neurons after de-lipidation,hippocampal neurons [2],labeling was not diminished
same,labeling of neurons after de-lipidation,hippocampal neurons [2]; listed as probe III,does not alter the labeling
same,binding to hippocampal neurons,hippocampal neurons [2],binds
same,binding to hippocampal neurons,hippocampal neurons [2]; listed as compound III,binding of compound III to the cell body and neurite processes
